Tests used:
ALK+ NSCLC = experiment: Exposure-PFS analysis (Kaplan-Meier, Cox PH models), ALTA-1L; format: in vivo, human
Experimental: Model‐based estimates of CL/F and actual dosing history were used to derive exposure metrics of interest. Several exposure metrics were considered, including both static and dynamic area under the concentration‐time curve (AUC) estimates (Methods S1).
First, the relationship between PFS and two static exposure metrics, time‐averaged AUC between the last two disease assessment scans preceding progression or censoring and time‐averaged AUC until progression, was evaluated. These exposure‐PFS relationships were characterized by a proportional hazard (PH) model relating exposure to the hazard of PFS. The hazard function was expressed as: (1) λt=λ0te^β^TXi where λ 0 (t) is the baseline hazard function and Xi is a vector of predictor variables for an individual patient. The parameter vector β was estimated by maximum partial likelihood and captures the effect of exposure and/or additional covariates on the hazard of disease progression.
Next, the relationship between PFS and two dynamic exposure metrics, daily time‐varying AUC between the last two disease assessment scans preceding progression or censoring and daily time‐varying AUC until progression, was evaluated. These analyses used a time‐dependent covariate Cox PH model relating time‐dependent exposure to PFS. The hazard function was expressed as: (2) λt=λ0te^β1×AUCDt+β^TXi where model parameters were as above in Equation 1, except that exposure (AUCDt ) was a time‐dependent predictor rather than a constant for each patient.
For each static exposure‐PFS analysis, Kaplan‐Meier (KM) plots of PFS probability over time were generated and stratified by brigatinib exposure quartiles. Crizotinib PFS curves were overlaid for comparison.
Dynamic daily time-averaged AUC between successive disease assessment scans preceding the event or censoring for PFS, obtained as the average of daily AUCs within each scan interval.
Time averaged AUC until PFS= Cumulative dose to progressionOral brigatinib clearance/ (days to progression)

[1] = Exposure-safety analysis and AE incidence, ALTA-1L; format: in vivo, human
Source text: […] AEs of interest selected for analysis included eight grade two or higher AEs (increased alanine aminotransferase [ALT], AST, or amylase; hyperglycemia; hypertension; bradycardia; rash; and pulmonary events [pneumonitis or ILD]), five grade three or higher AEs (increased CPK, AST, ALT, amylase, and lipase), and a composite grade three or higher AE end point that included grade three or higher CPK, AST, ALT, amylase, or lipase elevations; hyperglycemia; hypertension; bradycardia; rash; and pulmonary events.
AEs were included in the analysis if they occurred any time between the first day of brigatinib dosing and 30 days after the last dose. AEs were defined according to the National Cancer Institute Common Toxicity Criteria for Adverse Events version 4.03. The relationship between time‐averaged exposure and AE probability was examined using the same logistic regression models described for the exposure–clinical response analyses. Probability of an AE was plotted against exposure, with observed probabilities calculated by exposure quartiles.
The relationship between brigatinib exposure and time to first brigatinib dose reduction was also explored. A KM plot of time to first brigatinib dose reduction was generated, with survival curves binned by brigatinib exposure quartiles, where exposure was defined as the time‐averaged AUC to the first occurrence of dose reduction.

[2] = test system: advanced ALK+ NSCLC that progressed on crizotinib; conditions: ALTA, cited from earlier work
[3] = in ALTA and ALTA-1L; cited from earlier work
[4] = 180 mg q.d. with 7-day lead-in at 90 mg q.d.
[5] = patients with measurable baseline brain metastases

Compound: COc1cc(N2CCC(N3CCN(C)CC3)CC2)ccc1Nc1ncc(Cl)c(Nc2ccccc2P(C)(C)=O)n1 [brigatinib]
- Cox PH ratio for PFS versus exposure (ALK+ NSCLC; dynamic metric: daily time-averaged AUC between successive disease assessments preceding PFS event or censoring, p = 0.08): 1.02
- Cox PH ratio for PFS versus exposure (ALK+ NSCLC; dynamic metric: daily time-varying AUC preceding progression or censoring, p = 0.69): 1.01 [0.98–1.03]
- HR [95% CI] of disease progression or death per one-unit increase in exposure (Cox PH model) (ALK+ NSCLC; static metric: time-averaged AUC between the last two disease assessments, p = 0.01): 1.03 [1.01–1.05]
- Incidence of ALT increase, Grade ≥2 ([1]; n = 123): 18 (14.6) n (%)
- Incidence of ALT increase, Grade ≥3 ([1]; n = 123): 6 (4.9) n (%)
- Incidence of AST increase, Grade ≥2 ([1]; n = 123): 10 (8.1) n (%)
- Incidence of AST increase, Grade ≥3 ([1]; n = 123): 5 (4.1) n (%)
- Incidence of Amylase increase, Grade ≥2 ([1]; n = 123): 24 (19.5) n (%)
- Incidence of Amylase increase, Grade ≥3 ([1]; n = 123): 10 (8.1) n (%)
- Incidence of Bradycardia, Grade ≥2 ([1]; n = 123): 2 (1.6) n (%)
- Incidence of CPK increase, Grade ≥3 ([1]; n = 123): 32 (26.0) n (%)
- Incidence of Hyperglycemia, Grade ≥2 ([1]; n = 123): 2 (1.6) n (%)
- Incidence of Hypertension, Grade ≥2 ([1]; n = 123): 38 (30.9) n (%)
- Incidence of Lipase increase, Grade ≥3 ([1]; n = 123): 22 (17.9) n (%)
- Incidence of Pulmonary AEs (pneumonitis and interstitial lung disease), Grade ≥2 ([1]; n = 123): 2 (1.6) n (%)
- Incidence of Rash, Grade ≥2 ([1]; n = 123): 15 (12.2) n (%)
- Incidence of Any AE, Grade ≥3 ([1]; n = 123, composite of CPK, AST, ALT, amylase, lipase, hyperglycemia, hypertension, bradycardia, rash, pulmonary events): 64 (52.0) n (%)
- Odds ratio, grade ≥3 lipase increase per 1 µg·h/mL/day increase in exposure ([1]; time-averaged AUC across days 8 to 14 of cycle one, 95% CI: 1.00–1.10, p = 0.039): 1.05
- Odds ratio, grade ≥2 amylase increase per 1 µg·h/mL/day increase in exposure ([1]; time-averaged AUC across days 8 to 14 of cycle one, 95% CI: 1.01–1.11, p = 0.016): 1.06
- Estimated odds ratio, grade ≥3 lipase increase versus exposure ([1]; time-averaged AUC to first occurrence of an event, 95% CI: 0.99–1.07, p = 0.146): 1.03
- Estimated odds ratio, grade ≥2 amylase increase versus exposure ([1]; time-averaged AUC to first occurrence of an event, p = 0.094): 1.04 [0.99–1.09]
- Effect of exposure on time to first brigatinib dose reduction (KM plots by exposure quartiles) ([1]; time-averaged AUC to the first occurrence of dose reduction): did not show a discernible effect
- IRC-assessed confirmed objective response rate (ORR) [2, 4]: 56%
- Median IRC-assessed progression-free survival (PFS) [2, 4]: 16.7 months
- IRC-assessed intracranial ORR (iORR) [2, 5]: 67%
- Median duration of (intracranial) response [2, 5]: 16.6 months
- Incidence of any-grade AEs of elevated amylase [3]: 15% to 18
